What was measured:
Assay type in all cases: cell-based, human
mTORC1 = test: Immunoblotting of HDOs for P-S6RP and P-P70S6K (mTORC1 activation); details: HDO, serum free and glutamine free William's E medium (FIG. 20A-C)
Procedure: Human ductal organoids. The normal human liver tissue was obtained through the Cooperative Human Tissue Network (CHTN) at Vanderbilt University Medical Center. The liver was cut into very small pieces in liver digestion medium (Gibco, Waltham, MA; 17703-034). The cell suspension was filtered through a 100-μm cell strainer. The flow through was then centrifuged for 2 min at 100 g, 4° C., and the cell pellet resuspended in ice-cold DMEM (Gibco, Waltham, MA; 11885-084, supplemented by 5% FBS) and centrifuged for 2 min at 300 g. The cell pellet was gently resuspended in Matrigel® (Corning, Corning, NY; 356231) and a […] dome plated in a 24-well plate. The plate was incubated for 10-15 min at 37° C. After solidifying, complete HepatiCult™ Organoid Initiation Medium (OIM) (STEMCELL Technologies, Vancouver, Canada; 100-0384) was added. For passaging, the Matrigel dome was dissociated using TrypLE (Thermo Fisher Scientific, Waltham, MA; 12604013) and incubated at 37° C. for 5 mins. Organoids were washed by resuspending in advanced DMEM/F12 and consecutive resuspension of the organoid pellet. Organoids were resuspended at a 1:10 dilution in Matrigel® and cultured in complete HepatiCult™ Organoid Growth Medium (OGM) (STEMCELL Technologies, Vancouver, Canada; 100-0385) for organoid expansion. For hepatocytic differentiation of hepatic ductal organoids, culture medium was changed to complete HepatiCult™ Organoid Differentiation Medium (ODM) (STEMCELL Technologies, 100-0383) 4 days after passaging. Vehicle, NTF3, BDNF, HGF (20 ng/ml final concentration) or Taletrectinib (Fisher Scientific, Waltham, MA; 502030245, final concentration 10 nM) or torin2 (Fisher Scientific, Waltham, MA; s2817, final concentration 25 nM) were diluted in William's E (without L-glutamine) and added to organoids.
Immunoblotting. HDOs and mpPHH were homogenized in RIPA buffer containing proteinase inhibitors (Roche, Basel, Switzerland; cOmplete™ Mini protease inhibitor, 2 tab/10 ml buffer) and 1×HALT phosphatase inhibitors (Thermo Fisher Scientific, Waltham, MA; catalog no. 78428). Lysates were sonicated and then centrifuged for 10 min at 18,800 g. Protein concentration of supernatants was determined by Direct Detect Spectrophotometer (MilliporeSigma, Burlington, MA). HDOs were treated with growth factors as described above. Lyophilized NTF3 was solubilized with sterile-filtered PBS supplemented with 0.1% BSA, aliquoted, and stored at −80° C. until use. […] HDOs and mpPHH were collected on ice in PBS and centrifuged for 10 s, and the cell pellet was homogenized in RIPA buffer containing inhibitors (Roche, Basel, Switzerland; cOmplete™ Mini protease inhibitor, 1×HALT phosphatase inhibitors, Thermo Fisher Scientific, Waltham, MA; catalog no. 78428). Cell lysates were sonicated and centrifuged for 10 min at 18,800 g. The protein concentration of supernatants was determined by a Direct Detect® spectrophotometer (MilliporeSigma, Burlington, MA). For immunoblot analysis, 10 to 50 μg of protein diluted in […] sample buffer (Invitrogen, Waltham, MA) were analyzed per SDS-polyacrylamide gel electrophoresis (NuPAGE™, Invitrogen, Waltham, MA) using Mops buffer or MES buffer (Invitrogen, Waltham, MA). […] Semi-quantitative band densitometry was performed using ImageJ software (version 1.53).

[1] = system: P-TRKA Tyr674/675, P-TRKB Tyr706/707; test: Western blot of phosphorylated TRK in HepG2 cell lysates; details: HepG2, NTF3 (FIG. 9G-H)
Procedure: Human HepG2 and mouse AML12 cells were grown in 6-well plates. […] Lyophilized NTF3 was solubilized with sterile filtered PBS supplemented with 0.1% BSA, aliquoted and stored at −80° C. until use. […] Cell lysates were sonicated and centrifuged for 10 min at 18,800×g. Protein concentration of supernatants were determined by Direct Detect Spectrophotometer (MilliporeSigma, Burlington, MA).
For immunoblot analysis, 30-50 μg of protein diluted in LSD sample buffer (Invitrogen, Waltham, MA) were analyzed per SDS-PAGE (NuPAGE™, Invitrogen, Waltham, MA) using MOPS buffer or MES buffer (Invitrogen, Waltham, MA). Gels were stained with Coomassie (Bio-Safe Coomassie G-250 Stain, Bio-Rad, Hercules, CA) and transferred onto PVDF membranes using semi-dry blotting (Trans-Blot SD, Bio-Rad, Hercules, CA). Images were visualized on an Amersham™ Imager 680 (Cytiva, Marlborough, MA).

mTOR = test: Immunoblotting of mpPHH for P-S6RP and P-P70S6K (mTOR activation); details: NTF3
Procedure: Mouse passaged primary human hepatocytes. Mouse-passaged primary human hepatocytes (mpPHHs) were collected as previously described (Michailidis et al., Proc Natl Acad Sci USA. 2020; 117(3): 1678-1688) and cultured in hepatocyte culture media (CC-3198, Lonza, Basel, Switzerland) in collagen-coated chamber slides. Three days before treatment, mpPHH were incubated in William's E media (with L-glutamine). […] 5-15 images per treatment per experiment were randomly taken and EdU positive nuclei quantified.
(§1) Immunoblotting. […] Protein concentration of supernatants was determined by Direct Detect Spectrophotometer (MilliporeSigma, Burlington, MA). […] The protein concentration of supernatants was determined by a Direct Detect® spectrophotometer (MilliporeSigma, Burlington, MA). For immunoblot analysis, 10 to 50 μg of protein diluted in […] sample buffer (Invitrogen, Waltham, MA) were analyzed per SDS-polyacrylamide gel electrophoresis (NuPAGE™, Invitrogen, Waltham, MA) using Mops buffer or MES buffer (Invitrogen, Waltham, MA). […] Semi-quantitative band densitometry was performed using ImageJ software (version 1.53).

CCND1 and PCNA = test: Immunoblotting of HDOs for CCND1 and PCNA; details: NTF3
Procedure: Human ductal organoids. The normal human liver tissue was obtained through the Cooperative Human Tissue Network (CHTN) at Vanderbilt University Medical Center. The liver was cut into very small pieces in liver digestion medium (Gibco, Waltham, MA; 17703-034). The cell suspension was filtered through a 100-μm cell strainer. The flow through was then centrifuged for 2 min at 100 g, 4° C., and the cell pellet resuspended in ice-cold DMEM (Gibco, Waltham, MA; 11885-084, supplemented by 5% FBS) and centrifuged for 2 min at 300 g. The cell pellet was gently resuspended in Matrigel® (Corning, Corning, NY; 356231) and a […] dome plated in a 24-well plate. The plate was incubated for 10-15 min at 37° C. […]
as §1

NTF3: neurotrophin-3, recombinant protein; HSC-derived hepatocyte mitogen, ligand of TRKA, TRKB, TRKC
phosphorylation of P-p70S6 kinase and P-S6 ribosomal protein (S6RP) (mTORC1): significantly increased phosphorylation | TRK phosphorylation (P-TRKA Tyr674/675, P-TRKB Tyr706/707) [1]: Increased TRK phosphorylation | levels of phosphorylated P-S6RP Ser240/244 and P-pS70SK Thr389 (mTOR): increased levels | CCND1 and PCNA (immunoblotting) (CCND1 and PCNA): induced CCND1 and PCNA
